One experiment concerns the target PI3Kα (Homo sapiens, UniProt P42336). As to the kind of experiment: ELISA assay for PI3Kα: in-cell ELISA, phosphorylation of AKT (Thr308) in MDA-MB-453 cells. The settings on record: cellular, pAKT (Thr308), IGF-1 stimulation, read-out: IC50 p110α. Type of experiment: cell-based. On the procedure:
PI3K alpha (PI3Kα) activity was determined by measuring the phosphorylation of AKT (Thr308) using an in-cell ELISA assay. MDA-MB-453 (breast carcinoma) cells were obtained from ATCC (ATCC #HTB-131). Growth medium was DMEM (CellGro #CV-10-013-CV) supplemented with 10% fetal bovine serum, 100 IU/mL penicillin, 100 μg/mL streptomycin, and 1×MEM non-essential amino acids. Phosphate buffered saline (PBS) contained 2.7 M NaCl, 54 mM KCl, 86 mM […] (dibasic, anhydrous), and 28 mM […] (monobasic, anhydrous) at pH 7.2. Stimulation mixture (10×) was 1000 ng/mL LONG® R^3 human IGF-1 (Sigma #I1271) diluted in serum-free DMEM medium (CellGro #CV-10-013-CV). Compounds for testing were dissolved and serially diluted in 100% DMSO (total of 10 concentrations), then diluted in serum-free DMEM to 2× final assay concentration. Fixative solution (2×) was 8% formaldehyde (Amresco #M134) diluted in PBS. Permeabilization solution was PBS supplemented with 0.1% Triton X-100. Blocking buffer was obtained from LiCor (LiCor #927-40000). Wash buffer was PBS supplemented with 0.1% Tween-20. Primary antibody solution was rabbit anti-pAKT^T308 monoclonal antibody (Cell Signaling #2965) and mouse anti-total S6 (Santa Cruz #74459) diluted 1:500 and 1:2000, respectively, in the blocking buffer. Secondary antibody solution was IRDye 800CW-conjugated goat anti-rabbit IgG (LiCor #926-32211) and IRDye 680LT-conjugated goat anti-mouse IgG (LiCor #926-68020) diluted 1:1000 and 1:2000, respectively, in the blocking buffer.
MDA-MB-453 cells were subcultured in growth medium and seeded into flat, clear bottom, 96-well plates (Corning #3904) at 40000 cells/well, then incubated overnight in a 5% CO2 incubator at 37° C. Growth medium in plates was replaced with 100 μL/well serum-free DMEM and incubated overnight at 37° C. in a 5% CO2 incubator. Fresh serum-free DMEM (50 μL/well) was added to plates. Compound treatment was performed by adding 50 μL/well of 2× compound mixture to plates and incubating for 1 hr at 37° C. and 5% CO2, after which 11 μL/well of 10× stimulation mixture was added and plates were incubated for 10 min at 37° C. and 5% CO2. Fixation was performed by adding 110 μL/well of 2× fixative solution to the plates and incubating for 20 min at room temperature. Permeabilization was performed by replacing fixation solution with 150 μL/well permeabilization solution and incubating for 10 min at room temperature. Permeabilization was repeated (for a total of 2 times). Permeabilization solution was replaced with 100 μL/well blocking buffer and plates were incubated for 1 hour at room temperature, after which 100 μL/well of primary antibody solution was added and plates were incubated overnight at 4° C. Plates were washed with wash buffer, after which 100 μL/well of secondary antibody solution was added to the plates and incubated in the dark for 1 hr at room temperature. Plates were washed with wash buffer, followed by a wash with PBS. After completely removing PBS, plates were scanned on the Licor Odyssey Imager. Images were quantified using Licor Odyssey application software. IC50 values were determined by curve fitting using a Collaborative Drug Discovery database (www.collaborativedrug.com).
(An ELISA detects its analyte on a solid surface through an enzyme-linked reagent.)

The target in the next experiment is T1, PI3K beta (Homo sapiens, UniProt P42338).
T1 construct: purchased Millipore, Billerica, MA, USA
The experiment is described as follows: Luciferase-based luminescence assay (ADP Glo), PI3K beta enzymatic activity. Type of experiment: biochemical. To be noted: for pIC50: inhibition of enzymatic activity, ADP Glo, 25 μM ATP, read-out: IC50 p110β; for α/β ratio: ratio of enzymatic IC50 values, Table 1. The gist of the method:
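Final enzyme 4.8 nM PI3K beta or 7.6 nM PI3K gamma, with 50 μM PIP2 and 25 μM ATP, 1 h in HEPES pH 7.5 buffer with MgCl2, EGTA, NaCl, CHAPS and DTT. ADP formed measured by ADP-Glo luminescence; IC50 from 10-point curve fits.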
A general note: ADP-Glo turns the ADP formed in a reaction into a luminescent signal.

IC50 and α/β ratio data for eleven compounds are collected here from patent US12059422B2 (MEI Pharma, Inc., priority 2011, dated 2024).

pIC50: −log10 of the molar value.

PI3Kα, sequence (P27986 2-724): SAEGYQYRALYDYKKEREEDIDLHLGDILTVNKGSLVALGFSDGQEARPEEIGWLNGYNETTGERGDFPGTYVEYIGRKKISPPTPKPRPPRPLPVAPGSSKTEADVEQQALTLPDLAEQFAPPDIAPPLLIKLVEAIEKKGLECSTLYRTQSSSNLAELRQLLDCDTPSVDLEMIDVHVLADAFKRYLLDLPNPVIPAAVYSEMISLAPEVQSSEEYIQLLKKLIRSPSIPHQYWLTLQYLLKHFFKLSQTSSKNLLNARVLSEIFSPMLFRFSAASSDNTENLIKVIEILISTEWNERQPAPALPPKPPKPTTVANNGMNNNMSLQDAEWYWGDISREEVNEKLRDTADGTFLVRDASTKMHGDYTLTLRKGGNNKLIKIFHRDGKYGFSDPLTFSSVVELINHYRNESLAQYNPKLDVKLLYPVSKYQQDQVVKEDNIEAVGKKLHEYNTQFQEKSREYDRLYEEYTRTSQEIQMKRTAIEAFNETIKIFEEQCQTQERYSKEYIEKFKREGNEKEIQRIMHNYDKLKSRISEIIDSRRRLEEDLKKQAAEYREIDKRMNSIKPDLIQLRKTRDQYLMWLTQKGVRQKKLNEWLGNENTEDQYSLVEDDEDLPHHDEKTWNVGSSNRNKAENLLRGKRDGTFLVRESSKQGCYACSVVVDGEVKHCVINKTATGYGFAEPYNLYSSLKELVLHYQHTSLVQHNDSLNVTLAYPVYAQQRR
PI3Kα, sequence (P42336 whole entry): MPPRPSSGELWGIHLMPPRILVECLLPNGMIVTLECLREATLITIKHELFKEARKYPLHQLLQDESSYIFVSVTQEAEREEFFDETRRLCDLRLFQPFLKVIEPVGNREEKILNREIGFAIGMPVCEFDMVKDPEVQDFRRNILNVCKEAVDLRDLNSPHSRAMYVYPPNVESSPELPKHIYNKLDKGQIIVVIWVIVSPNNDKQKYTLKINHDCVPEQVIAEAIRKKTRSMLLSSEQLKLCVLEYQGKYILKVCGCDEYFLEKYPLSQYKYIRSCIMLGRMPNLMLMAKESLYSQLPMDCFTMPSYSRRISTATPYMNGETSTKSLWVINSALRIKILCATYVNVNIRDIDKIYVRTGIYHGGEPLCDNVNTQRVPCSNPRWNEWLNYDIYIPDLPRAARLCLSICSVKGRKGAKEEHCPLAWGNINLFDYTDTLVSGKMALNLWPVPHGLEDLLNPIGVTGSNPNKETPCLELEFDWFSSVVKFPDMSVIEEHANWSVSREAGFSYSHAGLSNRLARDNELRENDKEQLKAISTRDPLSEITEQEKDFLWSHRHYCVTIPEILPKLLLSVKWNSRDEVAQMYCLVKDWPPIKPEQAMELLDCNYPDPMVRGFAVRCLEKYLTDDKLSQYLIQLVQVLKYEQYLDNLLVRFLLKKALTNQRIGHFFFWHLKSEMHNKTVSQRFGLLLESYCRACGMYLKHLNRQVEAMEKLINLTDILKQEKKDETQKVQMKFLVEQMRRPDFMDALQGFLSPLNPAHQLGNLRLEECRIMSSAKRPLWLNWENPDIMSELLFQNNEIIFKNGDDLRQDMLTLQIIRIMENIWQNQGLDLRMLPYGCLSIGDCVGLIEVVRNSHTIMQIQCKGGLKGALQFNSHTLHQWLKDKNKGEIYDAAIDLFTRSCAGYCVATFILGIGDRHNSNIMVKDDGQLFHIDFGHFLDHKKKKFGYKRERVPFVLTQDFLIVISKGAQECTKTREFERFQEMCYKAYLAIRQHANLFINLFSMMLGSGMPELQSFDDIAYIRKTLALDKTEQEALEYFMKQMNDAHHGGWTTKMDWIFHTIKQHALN
T1 sequence (P42338 whole entry, species assumed): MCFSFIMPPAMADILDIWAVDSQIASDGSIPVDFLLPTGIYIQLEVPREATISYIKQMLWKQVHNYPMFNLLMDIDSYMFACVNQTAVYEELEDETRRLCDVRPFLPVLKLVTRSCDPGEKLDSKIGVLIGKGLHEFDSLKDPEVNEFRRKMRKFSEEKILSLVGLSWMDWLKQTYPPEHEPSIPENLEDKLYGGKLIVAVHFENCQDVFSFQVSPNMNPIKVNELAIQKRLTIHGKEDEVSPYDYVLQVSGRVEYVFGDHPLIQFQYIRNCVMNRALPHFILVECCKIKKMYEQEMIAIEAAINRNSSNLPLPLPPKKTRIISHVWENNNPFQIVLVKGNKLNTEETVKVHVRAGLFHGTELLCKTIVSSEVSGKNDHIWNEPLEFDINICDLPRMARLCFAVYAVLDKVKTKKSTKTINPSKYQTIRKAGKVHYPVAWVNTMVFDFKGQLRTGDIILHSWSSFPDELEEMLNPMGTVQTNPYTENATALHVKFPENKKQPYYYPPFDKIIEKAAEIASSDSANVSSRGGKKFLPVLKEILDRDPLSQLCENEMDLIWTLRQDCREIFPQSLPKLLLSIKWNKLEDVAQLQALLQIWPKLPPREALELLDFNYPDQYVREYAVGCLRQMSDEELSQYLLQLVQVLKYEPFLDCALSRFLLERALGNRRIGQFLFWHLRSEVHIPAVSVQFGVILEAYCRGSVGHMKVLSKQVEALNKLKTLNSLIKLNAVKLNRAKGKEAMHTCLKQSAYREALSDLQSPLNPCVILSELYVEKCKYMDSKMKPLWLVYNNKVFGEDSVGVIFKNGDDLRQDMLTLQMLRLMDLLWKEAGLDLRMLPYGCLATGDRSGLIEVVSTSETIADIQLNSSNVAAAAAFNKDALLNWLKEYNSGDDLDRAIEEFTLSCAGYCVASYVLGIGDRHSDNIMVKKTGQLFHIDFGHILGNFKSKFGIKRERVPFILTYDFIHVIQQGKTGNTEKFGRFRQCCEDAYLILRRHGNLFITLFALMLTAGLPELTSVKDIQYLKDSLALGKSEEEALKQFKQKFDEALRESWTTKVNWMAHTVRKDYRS
T1 sequence (P27986 whole entry partner, species assumed): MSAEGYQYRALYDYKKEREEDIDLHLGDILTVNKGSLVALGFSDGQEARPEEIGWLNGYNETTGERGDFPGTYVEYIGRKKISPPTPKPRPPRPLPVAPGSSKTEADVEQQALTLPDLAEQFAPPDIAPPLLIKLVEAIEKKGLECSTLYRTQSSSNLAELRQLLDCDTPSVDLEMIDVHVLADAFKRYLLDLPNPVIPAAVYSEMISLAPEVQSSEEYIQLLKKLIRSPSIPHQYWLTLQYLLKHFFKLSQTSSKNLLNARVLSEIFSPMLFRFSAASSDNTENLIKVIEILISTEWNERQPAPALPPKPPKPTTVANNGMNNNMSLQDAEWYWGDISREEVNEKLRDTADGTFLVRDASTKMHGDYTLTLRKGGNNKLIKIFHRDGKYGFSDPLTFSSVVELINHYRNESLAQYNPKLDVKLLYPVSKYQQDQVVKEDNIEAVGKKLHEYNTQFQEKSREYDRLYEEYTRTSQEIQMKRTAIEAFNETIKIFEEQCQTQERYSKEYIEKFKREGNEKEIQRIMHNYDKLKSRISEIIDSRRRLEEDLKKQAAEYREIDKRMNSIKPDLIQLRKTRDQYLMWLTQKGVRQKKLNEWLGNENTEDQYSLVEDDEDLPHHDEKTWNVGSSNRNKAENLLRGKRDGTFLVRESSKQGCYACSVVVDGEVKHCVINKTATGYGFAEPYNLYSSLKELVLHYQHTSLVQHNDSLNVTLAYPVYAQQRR

For orientation: pIC50 means −log10 of the IC50, conventionally taken in molar units. In the case of `CN1CCN(c2cc(-c3ccccc3CC(C)(C)Nc3nc(N4CCOCC4)nc(-n4c(C(F)F)nc5ccccc54)n3)ccn2)CC1` [Compound A64, 4-(2-(difluoromethyl)-1H-benzo[d]imidazol-1-yl)-N-(2-methyl-1-(2-(2-(4-methylpiperazin-1-yl)pyridin-4-yl)phenyl)propan-2-yl)-6-morpholino-1,3,5-triazin-2-amine], the pIC50 on PI3Kα is less than 6.30. Moreover, on PI3K beta, the pIC50 was not below 7.00 and the α/β ratio result is reported as “A’”.
For `CC(C)(Cc1ccccc1-c1cccc(CN2CCOCC2)c1)Nc1nc(N2CCOCC2)nc(-n2c(C(F)F)nc3ccccc32)n1` [Compound A65, 4-(2-(difluoromethyl)-1H-benzo[d]imidazol-1-yl)-N-(2-methyl-1-(3′-(morpholinomethyl)biphenyl-2-yl)propan-2-yl)-6-morpholino-1,3,5-triazin-2-amine], in that order: less than 6.30, not below 7.00 and “A’”.
In the case of `COc1cccc(-c2ccccc2CC(C)(C)Nc2nc(N3CCOCC3)nc(-n3c(C(F)F)nc4ccccc43)n2)c1` [Compound A66, 4-(2-(difluoromethyl)-1H-benzo[d]imidazol-1-yl)-N-(1-(3′-methoxybiphenyl-2-yl)-2-methylpropan-2-yl)-6-morpholino-1,3,5-triazin-2-amine], the pIC50 at PI3Kα was less than 6.30. Moreover, at PI3K beta, the pIC50 was less than 6.30 and the α/β ratio entry is listed as “D’”.
Turning to `COc1ccc(-c2ccccc2CC(C)(C)Nc2nc(N3CCOCC3)nc(-n3c(C(F)F)nc4ccccc43)n2)cc1` [Compound A67, 4-(2-(difluoromethyl)-1H-benzo[d]imidazol-1-yl)-N-(1-(4′-methoxybiphenyl-2-yl)-2-methylpropan-2-yl)-6-morpholino-1,3,5-triazin-2-amine], at PI3Kα, the pIC50 is less than 6.30. On PI3K beta, the pIC50 was 6.30 to 6.70 and the α/β ratio entry is “D’”.
As for `CC(C)(Cc1ccccc1C1CCNCC1)Nc1nc(N2CCOCC2)nc(-n2c(C(F)F)nc3ccccc32)n1` [Compound A68, 4-(2-(difluoromethyl)-1H-benzo[d]imidazol-1-yl)-N-(2-methyl-1-(2-(piperidin-4-yl)phenyl)propan-2-yl)-6-morpholino-1,3,5-triazin-2-amine], the negative-log IC50 (pIC50) at PI3Kα and on PI3K beta was less than 6.30 throughout. In addition, the α/β ratio entry on PI3K beta is “D’”.
Take `CCN1CCC(c2ccccc2CC(C)(C)Nc2nc(N3CCOCC3)nc(-n3c(C(F)F)nc4ccccc43)n2)CC1` [Compound A70, 4-(2-(difluoromethyl)-1H-benzo[d]imidazol-1-yl)-N-(1-(2-(1-ethylpiperidin-4-yl)phenyl)-2-methylpropan-2-yl)-6-morpholino-1,3,5-triazin-2-amine]: the pIC50 at PI3Kα and on PI3K beta was less than 6.30 each time. Further, the α/β ratio entry at PI3K beta is reported as “C’”.
Regarding `CC(C)N1CCC(c2ccccc2CC(C)(C)Nc2nc(N3CCOCC3)nc(-n3c(C(F)F)nc4ccccc43)n2)CC1` [Compound A71, 4-(2-(difluoromethyl)-1H-benzo[d]imidazol-1-yl)-N-(1-(2-(1-isopropylpiperidin-4-yl)phenyl)-2-methylpropan-2-yl)-6-morpholino-1,3,5-triazin-2-amine], the pIC50 at PI3Kα is less than 6.30. Moreover, on PI3K beta, the pIC50 is less than 6.30 and the α/β ratio entry was “D’”.
For `CC(=O)N1CCC(c2ccccc2CC(C)(C)Nc2nc(N3CCOCC3)nc(-n3c(C(F)F)nc4ccccc43)n2)CC1` [Compound A72, 4-(2-(difluoromethyl)-1H-benzo[d]imidazol-1-yl)-N-(2-methyl-1-(2-(1-acetylpiperidin-4-yl)phenyl)propan-2-yl)-6-morpholino-1,3,5-triazin-2-amine], the results for the negative-log IC50 (pIC50) on PI3Kα and at PI3K beta were 6.30 to 6.70 and not below 7.00, respectively. In addition, the α/β ratio result on PI3K beta is listed as “A’”.
For `CC(C)(Cc1ccccc1C1CCN(S(C)(=O)=O)CC1)Nc1nc(N2CCOCC2)nc(-n2c(C(F)F)nc3ccccc32)n1` [Compound A73, 4-(2-(difluoromethyl)-1H-benzo[d]imidazol-1-yl)-N-(2-methyl-1-(2-(1-(methylsulfonyl)piperidin-4-yl)phenyl)propan-2-yl)-6-morpholino-1,3,5-triazin-2-amine], in that order: 6.30 to 6.70, not below 7.00 and “A’”.
In the case of `CC(C)(Cc1ccccc1C1CCNC1)Nc1nc(N2CCOCC2)nc(-n2c(C(F)F)nc3ccccc32)n1` (stereo not drawn) [Compound A74, 4-(2-(difluoromethyl)-1H-benzo[d]imidazol-1-yl)-N-(2-methyl-1-(2-(pyrrolidin-3-yl)phenyl)propan-2-yl)-6-morpholino-1,3,5-triazin-2-amine], the pIC50 at PI3Kα is less than 6.30. For the same compound, at PI3K beta, the pIC50 was less than 6.30 and the α/β ratio result is “D’”.
For `CN(C)CCCc1ccccc1CC(C)(C)Nc1nc(N2CCOCC2)nc(-n2c(C(F)F)nc3ccccc32)n1` [Compound A76, 4-(2-(difluoromethyl)-1H-benzo[d]imidazol-1-yl)-N-(1-(2-(3-(dimethylamino)propyl)phenyl)-2-methylpropan-2-yl)-6-morpholino-1,3,5-triazin-2-amine], the pIC50 on PI3Kα is less than 6.30. Moreover, at PI3K beta, the pIC50 was 6.30 to 6.70 and the α/β ratio result is recorded as “C’”.
